From patent US10028929B2, “Method of treating raynaud's disease secondary to connectivitis using aminaphtone” (LABORATORI BALDACCI S.P.A., priority 2006, dated 2018)

Columns and labels:
Type in all cases: cell-based, human
[1] = test system: E-selectine adhesive molecule CD62 (ELAM-1); experiment: Cytofluorometric quantitative analysis of E-selectine (ELAM-1) expression in ECV 304 cells; conditions: 48 hr
Procedure: (§1) Cell lines ECV 304: they are cells coming from umbilical cord of a new-born and spontaneously immortalized at the 136th step (distributed from Collection of Cell Cultures). Such cells were cultured in a complete medium consisted of: Medium 199, L-glutamine 1%, penicillin/streptomycin 10 (Invitrogen) with an addition of 10% FCS (fetal calf serum) (Hy-clone).
Cytofluorometric quantitative analysis of aminaphtone effects on the E-selectine adhesive molecule expression CD62 (ELAM-1).
Cells of the ECV304 line, cultured in 28 cm^2 Petri dishes, were stimulated with IL-1β at 100 U/ml (Roche) over 48 hrs in a complete medium and complete medium additioned with aminaphtone at the concentration of 2; 4; 5 μg/ml, respectively. Such concentrations are equivalent to concentrations reached “in vivo” through administration of Capillarema per os at the standard dosage of 3 capsules/day (capsules with 75 mg of active substance per day). Furthermore, cells untreated with IL-1β were incubated in a complete medium additioned with aminaphtone alone at the concentration of 4 μg/ml.
Samples, after washing with PBS, were removed from the culture plates through a treatment with trypsin-EDTA. Adhesive molecules expression was detected through incubation over 20 min. with 7 μl/10^6 of human monoclonal antibody CD62-E-PECy5 (ELAM-1) (Becton-Dickinson). The binding specificity was ensured by the addition of the control […]. After washing and re-suspension in the fixing solution (1% paraformaldehyde, PFA in PBS), samples were analyzed in a flow cytometry with FACSdiva Software (Becton-Dickinson). Data were expressed as mean channel fluorescence and as fluorescence percentage of positive cells. All experiments were repeated 5 times on independent cell samples coming from different experimental sessions. Evaluation of endothelin production (ET-1).

[2] = test system: Pre-Pro-ET-1 (PPET-1) gene; experiment: Real-Time RT-PCR specific for Pre-Pro-ET-1 (PPET-1) in ECV 304 cells; conditions: ECV304 cells with or without IL-1β 100 U/ml, aminaphtone 2; 4; 6, 6-12-24-36 hrs
Procedure: as §1
b) Real-Time RT-PCR specific for Pre-Pro-ET-1 (PPET-1). The expression of PPET-1 gene was detected at 6-12-24-36 hrs, respectively, in samples: treated with IL-1β (100 U/ml); treated with IL-1β (100 U/ml) additioned with aminaphtone (2; 4; […]); non-stimulated by IL-1β but treated with aminaphtone alone. RT-PCR technique based on TaqMan technology was used (Applied Biosystems, Foster City, Calif.), through a sequence determination system ABI PRISM 7000 (Applied Biosystems). 2-4 μl were collected form each cDNA, diluted 1:5, in a final volume of 25 μl. […] The quantification of the specific mRNA PPET-1 was normalized for the constitutive gene expression glyceraldehyde-3-phosphate-dehydro-genase (GAPDH). Relative quantifications of the gene expression were made possible by the use of the comparative method CT (ΔΔCT). The CT value was defined as the number of PCR cycles required for overcome the fluorescence signal (defined as 10-fold the standard deviation of the basal variation). […]

endothelin-1 (ET-1) = experiment: Endothelin-1 production from ECV 304 cells, EIA-kit on supernatants; conditions: aminaphtone 2, 4, 6 mcg/ml, dose-dependent
Procedure: as §1
a) EIA-kit—Supernatants of cell samples ECV304 were collected, cultured as above, treated with IL-1β at 100 U/ml over 6-12-24 and 36 hrs or with IL-1β at 100 U/ml additioned with aminaphtone at the concentration of 2; 4; 6 μg/ml, respectively. Moreover, samples non-stimulated with IL-1β were incubated with the addition of aminaphtone alone at 2; 4; 6 μg/ml.
The concentration of ET-1 existing in the supernatants was quantified through Endothelin-1 EIA-Kit (CAYMAN Chemical) in an interval between 0 and 250 pg/ml. This immunometric test is based on the “sandwich” technique with a double antibody.

Cc1cc(OC(=O)c2ccc(N)cc2)c2ccccc2c1O [aminaphtone, 2-hydroxy-3-methyl-1,4-naphthohydroquinone-2-p-aminobenzoate]
ELAM-1 % positive cells ([1]; ECV304 cells + IL-1β 100 U/ml, aminaphtone 2 mcg/ml, IL-1β alone 38.4±3.7, p=n.s.): 36.6±4.5%
ELAM-1 membrane fluorescence, mean channel (MC), mean±standard deviation ([1]; ECV304 cells + IL-1β 100 U/ml, aminaphtone 2 mcg/ml, IL-1β alone 369.6±30.5, p<0.001): 332.2±36.8
ELAM-1 % positive cells ([1]; ECV304 cells + IL-1β 100 U/ml, aminaphtone 4 mcg/ml, IL-1β alone 38.4±3.7, p<0.001): 28.2±2.9%
ELAM-1 membrane fluorescence, mean channel (MC), mean±standard deviation ([1]; ECV304 cells + IL-1β 100 U/ml, aminaphtone 4 mcg/ml, IL-1β alone 369.6±30.5, p<0.001): 278.4±16.2
ELAM-1 % positive cells ([1]; ECV304 cells + IL-1β 100 U/ml, aminaphtone 5 mcg/ml, IL-1β alone 38.4±3.7, p<0.001): 27.2±3.7%
ELAM-1 membrane fluorescence, mean channel (MC), mean±standard deviation ([1]; ECV304 cells + IL-1β 100 U/ml, aminaphtone 5 mcg/ml, IL-1β alone 369.6±30.5, p<0.001): 252.6±10.3
ELAM-1 % positive cells ([1]; ECV304 cells not activated with IL-1β, aminaphtone 4 mcg/ml, medium alone 29.1±3.1, p<0.05): 19.4±1.7%
ELAM-1 membrane fluorescence, mean channel (MC), mean±standard deviation ([1]; ECV304 cells not activated with IL-1β, aminaphtone 4 mcg/ml, medium alone 250±22, p<0.05): 219±8.3
gene transcription of PRE-PRO-ET-1 [2]: trend, already observed at a level of gene transcription of PRE-PRO-ET-1
ET-1 production (EIA-kit) (endothelin-1 (ET-1); ECV304 cells non-activated, culture medium alone, significant at 12 h (6 mcg/ml), 24 h and 36 h (4, 6 mcg/ml)): tends to reduce the ET-1 production
ET-1 production (EIA-kit) (endothelin-1 (ET-1); ECV304 cells stimulated with IL-1β 100 U/ml, 6-12-24-36 hrs, significant at 6 h (4, 6 mcg/ml), 12 h (4, 6 mcg/ml), 36 h (6 mcg/ml)): tends to reduce the ET-1 production
